In brackets after ≈: the same amount, converted by molar mass. Where two headings read alike, the source gives them in different places.
Experiments:
In vivo mouse PK = conditions: for Vd / clearance / bioavailability: female, NMRI, plasma; for Vd / clearance: iv; for clearance: Cl; for bioavailability: po, 0.5 mg/kg
[1] = Thermodynamic solubility determination; type: physicochemical; conditions: phosphate buffer, pH 7.4, 37 °C, read-out: Solubility Therm.
[2] = Caco-2 Papp determination; conditions: human, Caco-2, pH 7.4

SMILES	Vd (In vivo mouse PK; 0.2 mg/kg) [L/kg]	clearance (In vivo mouse PK; 0.2 mg/kg, 0.2 mg/kg iv) [L/h/kg]	bioavailability (In vivo mouse PK) [%]	solubility at 24 h ([1]; pH 7.4, TFA salt) [mg/mL]	Papp A→B at 2 h, 1 μM [2] [nm/s]	efflux ratio at 2 h, 1 μM [2]	solubility at 24 h ([1]; pH 7.4, free base) [mg/mL]	Cl (In vivo mouse PK; 0.2 mg/kg iv, 0.2 mg/kg) [L/h/kg]
O=C1NCCC12CCN(c1c(Cl)cncc1-c1ccc(-c3cnn(CCO)c3)cc1)CC2 [Compound 17]	1.61	2.83	7	0.112	227	19.5	–	–
CC(C)(O)Cn1cc(-c2ccc(-c3cncc(Cl)c3N3CCC4(CCNC4=O)CC3)cc2)cn1 [Compound 18]	0.8	0.99	–	–	320	26.1	0.033 (≈ 68.7 µM)	–
CN(C)CCn1cc(-c2ccc(-c3cncc(Cl)c3N3CCC4(CCNC4=O)CC3)cc2)cn1 [Compound 19]	–	–	–	–	254	12.4	–	–
O=C1NCCC12CCN(c1c(Cl)cncc1-c1ccc(-c3cnn(CCN4CCCC4)c3)cc1)CC2 [Compound 20]	–	–	–	–	304	5.3	–	–
Cc1nc(-c2ccc(-c3cncc(Cl)c3N3CCC4(CCNC4=O)CC3)cc2)cn1C [Compound 21]	6.41	16.7	12	0.033	188	–	–	–
CN1c2ccc(-c3cncc(Cl)c3N3CCC4(CCNC4=O)CC3)cc2CS1(=O)=O [Compound 23, 8-(3-Chloro-5-(1-methyl-2,2-dioxido-1,3-dihydrobenzo[c]isothiazol-5-yl)pyridin-4-yl)-2,8-diazaspiro[4.5]decan-1-one]	–	–	–	–	290	3.3	–	–
CN1c2cc(-c3cncc(Cl)c3N3CCC4(CCNC4=O)CC3)ccc2CS1(=O)=O [Compound 24]	–	–	–	–	338	11	–	–
Nc1n[nH]c2cc(-c3cncc(Cl)c3N3CCC4(CCNC4=O)CC3)ccc12 [Compound 25, 8-(3-(3-Amino-1H-indazol-6-yl)-5-chloropyridin-4-yl)-2,8-diazaspiro[4.5]decan-1-one]	1.21	1.75	5	0.54	0.3	–	–	–
Cn1cc(-c2ccc(-c3cncc(Cl)c3N3CCC4(CC3)CNC(=O)O4)cc2)cn1 [Compound 41]	–	–	–	–	306	2.4	–	–
CN1c2ccc(-c3cncc(Cl)c3N3CCC4(CC3)CNC(=O)O4)cc2CS1(=O)=O [Compound 42, 8-(3-Chloro-5-(1-methyl-2,2-dioxido-1,3-dihydrobenzo[c]isothiazol-5-yl)pyridin-4-yl)-1-oxa-3,8-diazaspiro[4.5]decan-2-one]	1.34	2.86	–	0.053	166	–	–	–
Cn1cc(-c2ccc(-c3cncc(Cl)c3N3CCC4(CC3)NCNC4=O)cc2)cn1 [Compound 44]	1.12	3.07	20	–	191	–	–	–
Cn1cc(-c2ccc(-c3cncc(Cl)c3N3CCC4(CC3)NC(=O)NC4=O)cc2)cn1 [Compound 45]	1.26	1.56	11	0.039	159	–	–	–
CN1c2ccc(-c3cncc(Cl)c3N3CCC4(CC3)NC(=O)NC4=O)cc2CS1(=O)=O [Compound 46]	–	–	–	–	33	126	–	–
CC1=NC2(CCN(c3c(Cl)cncc3-c3ccc4c(c3)CS(=O)(=O)N4C)CC2)C(=O)N1 [Compound 47]	1.96	4.15	9	0.613	198	–	–	–
Cn1cc(-c2ccc(-c3cncc(Cl)c3N3CCC4(CC3)NC(=O)CNC4=O)cc2)cn1 [Compound 48]	1.84	4.27	5	0.008	67	–	–	–
CN(C)CCC1(C#N)CCN(c2c(Cl)cncc2-c2ccc3c(c2)CS(=O)(=O)N3C)CC1 [Compound 51]	–	–	–	–	353	–	–	–
COCCN1CCCC12CCN(c1c(Cl)cncc1-c1ccc3c(c1)CS(=O)(=O)N3C)CC2 [Compound 54, 5-(5-Chloro-4-(1-(2-methoxyethyl)-1,8-diazaspiro[4.5]decan-8-yl)pyridin-3-yl)-1-methyl-1,3-dihydrobenzo[c]isothiazole 2,2-Dioxide]	–	–	–	–	343	1.7	–	–
CN1c2ccc(-c3cncc(F)c3N3CCC4(CCNC4=O)CC3)cc2CS1(=O)=O [Compound 61, 8-(3-Fluoro-5-(1-methyl-2,2-dioxido-1,3-dihydrobenzo[c]isothiazol-5-yl)pyridin-4-yl)-2,8-diazaspiro[4.5]decan-1-one]	1.86	7.9	5	–	329	3	–	7.94
